We go through ten compounds from patent US9452119B2, “Nitrone compounds and their use in personal care” (Dow Global Technologies LLC, priority 2011, dated 2016).

A short description of data set [1]: Oxygen Radical Absorbance Capacity (ORAC) antioxidant potential. The arrangement: unit not given here. Conditions: calculated from ORAC values (AUC minus blank); Trolox as internal control. The procedure: Antioxidant potential is evaluated using the Oxygen Radical Absorbance Capacity (ORAC) protocol. ORAC is a chemical in-vitro method based on the hydrogen atom transfer (HAT) mechanism. ORAC measures antioxidant inhibition of peroxyl radical induced oxidations and thus reflects classical radical chain breaking antioxidant activity by H atom transfer. In this assay, the peroxyl radical reacts with a fluorescent probe to form a non-fluorescent product. This is quantitated using a fluorescence measurement. Antioxidant capacity is determined by decreased rate and amount of product formed over time. This assay depends upon the free radical damage to the fluorescent probe resulting in the change in its fluorescence intensity. The change of fluorescence intensity is an indicator of the degree of free radical damage. In the presence of an antioxidant, the inhibition of free radical damage is reflected in higher fluorescence intensity and can be measured as antioxidant capacity against the free radicals. The uniqueness of ORAC assay is that the reaction is driven to completion. This allows calculation of the area under the curve (AUC) and gives an absolute quantitation of antioxidancy as opposed to relative measurements in many other assays.
As noted, the longer it takes to observe a decrease in fluorescence, the higher the antioxidant (AO) potential. From the AUC for a given antioxidant, the AUC for blank is subtracted to give its ORAC value. The concentration of AO needed to give the same AUC values as Trolox is calculated and used to represent the Trolox equivalent AO Capacity (TEAC). Trolox is ((±)-6-Hydroxy-2,5,7,8-tetramethylchromane-2-carboxylic acid, CAS #53188-07-1), and is used as an internal control.
The ORAC test is conducted in the compounds of Examples 1-5 (inventive compounds) as well as to Vitamin C, Vitamin E, and the following comparative compounds:
The TEAC values calculated from the ORAC values are listed the Table 2.

Data set [2] deals with Type I collagen. Kind of data set: AAPH radical induced collagen degradation, SDS-PAGE of remaining γ-chain. It is filed as biochemical. Conditions: incubated with AAPH at 50° C. for 90 mins; antioxidants at same concentration; FIG. 1. The procedure:
Type I collagen, typically found in abundance in skin, is dissolved in 0.04 M acetic acid, pH 4.3, prior to different treatments. For radical induced collagen degradation, aqueous radical initiator 2,2′-azobis-2-methyl-propanimidamide dihydrochloride (AAPH) is used. The collagen samples are incubated with AAPH in the presence of VAN-IPHA (Example 3), pHBz-IPHA (Example 6), and vitamin E (comparative) of the same concentration to determine the efficacy of these antioxidants in preventing collagen degradation. After incubation at 50° C. for 90 mins, the collagen samples are analyzed by SDS-PAGE to determine the degree of degradation by the remaining amount of γ-chain, which is a covalently cross-linked trimer for collagen.

Data set [3] deals with collagen. The data set is described as follows: UVA-induced collagen degradation, SDS-PAGE / densitometry of collagen γ-bands. The settings on record: antioxidant at 238 μM, UVA irradiation, FIG. 3. It is filed as biochemical. The procedure: FIG. 3 is a densitometry plot of collagen γ-bands on SDS-PAGE of samples containing antioxidant at concentration of 238 μM.
In addition to the oxidative stress due to radical and ROS generation, oxidative damage to collagen can also be induced by UVA irradiation. Similar to the radical-induced collagen degradation, the effect of UVA in collagen degradation is mitigated by the presence of nitrones.
Similar to the prevention of radical-induced degradation, better efficacy in the inhibitory effect of preventing UVA-induced degradation is also observed for VAN-IPHA (FIG. 3). In this analysis, the effects of VAN-IPHA and pHBz-IPHA are compared to a highly efficacious antioxidant, Resveratrol. […] The stability of nitrones of the invention provide an advantageous alternative solution for antioxidant needs in cosmetic applications, such as anti-aging.

Turning to `Cc1cc(C(C)(C)C)c(O)c(C(C)(C)C)c1` [BHT, reference compound], the “TEAC (Trolox equivalent AO Capacity)” value in data set [1] was 0.11-0.21. Take `CC(C)/[N+]([O-])=C/c1ccccc1O` [SAL-IPHA, (Z)-N-(2-hydroxybenzylidene)propan-2-amine oxide]: in data set [1], the “TEAC (Trolox equivalent AO Capacity)” value is 3.02.

On to `CC(C)/[N+]([O-])=C/c1ccc(O)cc1` [pHBz-IPHA, (Z)-N-(4-hydroxybenzylidene)propan-2-amine oxide], for which the melting point – broadly, the temperature of the solid-liquid transition – was in the range of 217 to 218 °C. Moreover, the “TEAC (Trolox equivalent AO Capacity)” value in data set [1] was 8.67. As to Vitamin E [reference compound], the “TEAC (Trolox equivalent AO Capacity)” value in data set [1] was 0.13. `COc1cc(/C=[N+](\[O-])C(C)(C)C)ccc1O` [VAN-tBHA, (Z)-N-(4-hydroxy-3-methoxybenzylidene)-2-methylpropan-2-amine oxide]: the “TEAC (Trolox equivalent AO Capacity)” value in data set [1] is 4.42.

As to `Cc1cc(/C=[N+](\[O-])C(C)C)cc(C)c1O` [DMHBz-IPHA, (Z)-N-(4-hydroxy-3,5-dimethylbenzylidene)propan-2-amine oxide], the “TEAC (Trolox equivalent AO Capacity)” value in data set [1] is 1.56. `COc1cc(/C=[N+](\[O-])C(C)C)ccc1O` [VAN-IPHA, (Z)-N-(4-hydroxy-3-methoxybenzylidene)propan-2-amine oxide] came in with a melting point of 178 to 180 °C. In data set [1], the “TEAC (Trolox equivalent AO Capacity)” value is on record as 5.41. In addition, in data set [2], the “extent of collagen degradation (remaining γ-chain)” value is reported as “significantly less”. In addition, the “inhibitory effect of preventing UVA-induced collagen degradation” value in data set [3] is “better efficacy than Resveratrol”. For the compound `O=C1O[C@H]([C@@H](O)CO)C(O)=C1O` [Vitamin C, reference compound], the “TEAC (Trolox equivalent AO Capacity)” value in data set [1] is given as 0.76. As for `CCCC/C=[N+](\[O-])C(C)C` [VAL-IPHA, reference compound], the “TEAC (Trolox equivalent AO Capacity)” value in data set [1] is given as 0.18. On to `CC(C)(C)/[N+]([O-])=C/c1ccccc1` [PBN, reference compound], for which the “TEAC (Trolox equivalent AO Capacity)” value in data set [1] is 0.04.
